In US9642361B2, “Method for changing the development pattern, increasing the growth and the accumulation of starch, changing the structure of starch and increasing the resistance to water stress in plants” (IDEN BIOTECHNOLOGY, S.L., priority 2010, dated 2017):

Legend:
[1] = tested on: Arabidopsis thaliana plants; assay: Starch content in leaves of Arabidopsis plants cultured next to solutions of volatile compounds; assay type: in vivo; details: for starch accumulation in leaves: 2 cubic centimeters of 5% aqueous solution in 500 cubic centimeter box, two days
Protocol: To that end, the plants were cultured in Petri dishes containing solid MS medium with 90 mM sucrose. The plants germinated and were grown for two weeks in growth chambers with a photoperiod of 16 h of light (300 μmol of photons s^−1 m^−2) and at a constant temperature of 24° C.
The Petri dishes containing completely developed plants were placed in 500 cubic centimeter grow boxes with the particularity that, instead of microbial cultures, […] were introduced in said boxes in each case: indol, DTT (dithiothreitol), NAA (1-naphthaleneacetic acid), β-mercaptoethanol, salicylic acid, jasmonic acid, cysteine, acetoin, ethanol, methanol, β-hydroxybutyrate, butanediol, propanoic acid, acetic acid, acetaldehyde, formic acid or butyric acid, without there being any physical contact between the plant and the solution. The ethylene was provided in the form of ethephon powders. The boxes were sealed and leaves were harvested after two days of incubation to analyze starch content. Leaves were harvested at the end of the light period. As a negative control, the Petri dishes containing completely developed plants were cultured for two days in sealed plastic boxes together with a Petri dish containing 2 cubic centimeters of water in the absence of any of the volatile compounds assayed.
Starch was measured using an amyloglucosidase-based test kit (Boehringer Mannheim, Germany).

[2] = tested on: leaves cut from Arabidopsis; assay: Starch accumulation in cut Arabidopsis leaves with transcription/translation inhibitors in presence of fungal volatiles; assay type: in vivo, Arabidopsis thaliana; details: 50 μM cycloheximide or 200 μM cordycepin; after 2 hours of incubation
Protocol: The experiment of section 5.1 was repeated, using in this case leaves cut from Arabidopsis incubated in Petri dishes with solid MS medium supplemented with 90 mM sucrose and, where appropriate, with 50 micromoles (μM) of translation inhibitor cycloheximide (Sigma) and 200 micromoles (μM) of transcription inhibitor cordycepin (Sigma) (Fritz, C. C. et al., 1991: Proc. Natl. Acad. Sci. USA 88: 4458-4462; Hayashi, T. and Takagi, S., 2003; Plant Cell Physiol. 44: 1027-1036; Dhonukshe et al., 2006: Developmental Cell 10: 137-150). The dishes were deposited in 500 cubic centimeter boxes in which cultures of Alternaria alternata had previously been deposited.

detached potato leaves = assay: Starch content in detached potato leaves with added amino acids, with or without FVs; assay type: in vivo, Solanum tuberosum; details: exogenously added amino acid, +FV, 2 days
Protocol: FIG. 19: Graph depicting the starch content (expressed as μmoles of glucose per gram of fresh weight) measured in potato plants cultured for 2 days in MS supplemented with 90 mM sucrose and the indicated concentrations of cysteine, glycine, serine and methionine in the absence (−FV) or in the presence (+FV) of volatiles emitted by A. alternata grown in solid MS medium supplemented with 90 mM sucrose.
Therefore, it was investigated whether plastidial cysteine provision impairments are directly involved in MIVOISAP by measuring the starch content in detached potato leaves cultured in the presence and in the absence of FVs emitted by Alternaria alternata, and in the presence of different concentrations of cysteine.

SMILES | starch accumulation in leaves [1] | further results
CC=O [acetaldehyde] | promote starch overaccumulation | –
CC(=O)O [acetic acid] | promote starch overaccumulation | –
CCCC(=O)O [butyric acid] | promote starch overaccumulation | –
Nc1ncnc2c1ncn2[C@@H]1O[C@H](CO)C[C@H]1O [cordycepin] | – | starch accumulation in presence of fungal volatiles [2]: strongly inhibit starch accumulation
C[C@@H]1C[C@@H]([C@H](O)CC2CC(=O)NC(=O)C2)C(=O)[C@@H](C)C1 [cycloheximide] | – | starch accumulation in presence of fungal volatiles [2]: strongly inhibit starch accumulation
N[C@@H](CS)C(=O)O [cysteine] | – | MIVOISAP (starch content) in detached leaves (detached potato leaves): strongly suppressed
O=CO [formic acid] | promote starch overaccumulation | dose dependence of the effect on starch accumulation ([1]; solutions at 1%, 2% or 5% (v/v)): dose-dependent
CCC(=O)O [propanoic acid] | promote starch overaccumulation | –
